These results are taken from patent US12202835B2, “Substituted aromatic ring-linked dioxinoquinazolines and dioxinoquinolines as kinase inhibitors” (BEIJING SCITECH-MQ PHARMACEUTICALS LIMITED, priority 2018, dated 2025).

Assay [1] relates to Ba/F3-AXL cells. Description: Assay for inhibiting the proliferation of Ba/F3-AXL cells (CCK-8). Format: cell-based. Conditions: 72 hours of incubation, medium with 100 ng/mL hGas6, CCK-8. As for the experimental part:
The values were then imported into Graphpad Prism 5 software for curve fitting, and IC50 was calculated.

Assay [2] deals with MHCC97H cells. Description: Assay for inhibiting the proliferation of MHCC97H cells (CCK-8). Format: cell-based. Conditions: Homo sapiens. The gist of the method:
(§1)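 Cells seeded in 96-well plates overnight, then exposed 72 h to 9 three-fold dilutions of compound (0.25% DMSO final). Viability by CCK-8 (1-2 h at 37° C., OD 450 nm), survival normalized to untreated and cell-free blanks; IC50 by curve fitting.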

In assay [3] the test system is EBC1 cells. Description: Assay for inhibiting the proliferation of EBC1 cells (CCK-8). The format is cell-based. The conditions noted are these: Homo sapiens, EBC-1. The essentials: as §1
Assay [4] concerns the target MER kinase (Homo sapiens (Human), UniProt Q12866). Nature of the assay: Assay of small molecular compounds for inhibiting the activity of MER kinase (LANCE TR-FRET). The format is biochemical. The essentials:
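LANCE TR-FRET readout of ULight-poly GT phosphorylation by MER kinase; compound final range 0.042-2500 nM, 3-fold steps, 5 min enzyme preincubation. Reaction 60 min at room temperature in the dark with substrate/ATP (4× at 200 nM/20 μM), 1% DMSO, then stopped and developed 60 min; IC50 by curve fit.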
(In TR-FRET formats the signal depends on donor and acceptor labels being close together.)

A word on the IC50: it is the point on the concentration scale where inhibition reaches its midpoint.

Some results are limits rather than exact numbers.

MER kinase, sequence (Q12866 21-999): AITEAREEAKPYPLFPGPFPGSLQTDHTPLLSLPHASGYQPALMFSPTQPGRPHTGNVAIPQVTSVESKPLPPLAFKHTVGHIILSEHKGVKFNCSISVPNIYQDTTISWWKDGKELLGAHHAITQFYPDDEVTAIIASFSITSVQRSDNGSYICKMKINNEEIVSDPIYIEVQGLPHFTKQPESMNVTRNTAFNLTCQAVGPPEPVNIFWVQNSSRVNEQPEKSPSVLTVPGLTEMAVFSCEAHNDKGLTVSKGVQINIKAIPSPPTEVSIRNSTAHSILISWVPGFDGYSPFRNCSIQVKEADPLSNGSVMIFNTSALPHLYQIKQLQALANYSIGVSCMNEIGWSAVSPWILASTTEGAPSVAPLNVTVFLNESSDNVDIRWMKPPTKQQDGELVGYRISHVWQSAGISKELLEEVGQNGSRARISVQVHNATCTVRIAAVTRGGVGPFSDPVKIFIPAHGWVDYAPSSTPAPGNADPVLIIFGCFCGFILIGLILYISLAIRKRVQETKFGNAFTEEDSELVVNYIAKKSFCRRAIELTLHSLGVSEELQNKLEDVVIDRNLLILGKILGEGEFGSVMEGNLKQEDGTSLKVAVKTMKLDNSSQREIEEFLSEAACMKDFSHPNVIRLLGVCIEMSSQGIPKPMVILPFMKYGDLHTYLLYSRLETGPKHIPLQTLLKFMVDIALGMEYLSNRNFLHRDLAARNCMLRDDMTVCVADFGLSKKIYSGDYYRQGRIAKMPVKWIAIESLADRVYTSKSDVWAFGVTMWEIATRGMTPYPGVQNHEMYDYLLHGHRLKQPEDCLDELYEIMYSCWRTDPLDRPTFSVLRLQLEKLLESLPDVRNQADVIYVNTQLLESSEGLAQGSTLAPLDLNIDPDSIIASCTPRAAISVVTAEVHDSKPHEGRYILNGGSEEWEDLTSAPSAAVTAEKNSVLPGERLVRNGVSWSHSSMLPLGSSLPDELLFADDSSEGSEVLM

For the molecule `COc1cc2ncnc(Oc3ccc(NC(=O)c4cccn(-c5ccc(F)cc5)c4=O)cc3F)c2c2c1OCCO2` [Example 1, N-(3-fluoro-4-((5-methoxy-2,3-dihydro-[1,4]dioxino[2,3-f]quinazolin-10-yl)oxy)phenyl)-1-(4-fluorophenyl)-2-oxo-1,2-dihydropyridine-3-carboxamide], the IC50 in assay [1] was less than 50 nM; in assay [2], no more than 50 nM; in assay [3], 50 to 200 nM; in assay [4], no more than 50 nM.

Regarding `COc1cc2ncnc(Oc3ccc(NC(=O)c4c(OC)ccn(-c5ccc(F)cc5)c4=O)cc3F)c2c2c1OCCO2` [Example 2, N-(3-fluoro-4-((5-methoxy-2,3-dihydro-[1,4]dioxino[2,3-f]quinazolin-10-yl)oxy)phenyl)-1-(4-fluorophenyl)-4-methoxy-2-oxo-1,2-dihydropyridine-3-carboxamide], the IC50 in assay [1] is less than 50 nM; in assay [2] it was 200 to 1000 nM; in assay [3], 50 to 200 nM; in assay [4], no more than 50 nM.

In the case of `CCOc1ccn(-c2ccc(F)cc2)c(=O)c1C(=O)Nc1ccc(Oc2ncnc3cc(OC)c4c(c23)OCCO4)c(F)c1` [Example 3, N-(3-fluoro-4-((5-methoxy-2,3-dihydro-[1,4]dioxino[2,3-f]quinazolin-10-yl)oxy)phenyl)-1-(4-fluorophenyl)-4-ethoxy-2-oxo-1,2-dihydropyridine-3-carboxamide], the IC50 in assay [2] is 50 to 200 nM; in assay [3], 50 to 200 nM; in assay [4], no more than 50 nM.

Take `COc1cn(-c2ccc(F)cc2C)nc1C(=O)Nc1ccc(Oc2ncnc3cc(OCCCN4CCOCC4)c4c(c23)OCCO4)c(F)c1` [Example 11, 1-(4-fluoro-2-methylphenyl)-N-(3-fluoro-4-((5-(3-morpholinopropoxy)-2,3-dihydro-[1,4]dioxino[2,3-f]quinazolin-10-yl)oxy)phenyl)-4-methoxy-1H-pyrazole-3-carboxamide]: the half-maximal inhibitory concentration (IC50) in assay [2] lay in the range of 200 to 1000 nM; in assay [3], 200 to 1000 nM; in assay [4] it was 50 to 500 nM.

Turning to `CCOc1cn(-c2ccc(F)cc2C)nc1C(=O)Nc1ccc(Oc2ncnc3cc(OCCCN4CCOCC4)c4c(c23)OCCO4)c(F)c1` [Example 12, 1-(4-fluoro-2-methylphenyl)-N-(3-fluoro-4-((5-(3-morpholinopropoxy)-2,3-dihydro-[1,4]dioxino[2,3-f]quinazolin-10-yl)oxy)phenyl)-4-ethoxy-1H-pyrazole-3-carboxamide], the values for the IC50 in assay [2], in assay [3] and in assay [4] were 50 to 200 nM, 200 to 1000 nM and 50 to 500 nM, respectively.

With `COCCOc1cc2nccc(Oc3ccc(NC(=O)c4cn(C(C)C)c(=O)n(-c5ccc(F)cc5)c4=O)cc3F)c2c2c1OCCO2` [Example 43, N-(3-fluoro-4-((5-(2-methoxyethoxy)-2,3-dihydro-[1,4]dioxino[2,3-f]quinolin-10-yl)oxy)phenyl)-3-(4-fluorophenyl)-1-isopropyl-2,4-dioxo-1,2,3,4-tetrahydropyrimidine-5-carboxamide], the IC50 in assay [1] is less than 50 nM; in assay [4], no more than 50 nM.

With `CCOc1ccn(-c2ccc(F)cc2)c(=O)c1C(=O)Nc1ccc(Oc2ccnc3cc(OCCCN4CCCC4)c4c(c23)OCCO4)c(F)c1` [Example 52, N-(4-((5-(3-(pyrrolidin-1-yl)propoxy)-2,3-dihydro-[1,4]dioxino[2,3-f]quinolin-10-yl)oxy)-3-fluorophenyl)-4-ethoxy-1-(4-fluorophenyl)-2-oxo-1,2-dihydropyridine-3-carboxamide], the IC50 in assay [1] is less than 50 nM; in assay [2], no more than 50 nM; in assay [4] it was no more than 50 nM.

In the case of `CCOc1ccn(-c2ccc(F)cc2)c(=O)c1C(=O)Nc1ccc(Oc2ccnc3cc(OCC(C)C)c4c(c23)OCCO4)c(F)c1` [Example 58, N-(4-((5-(isobutyloxy)-2,3-dihydro-[1,4]dioxino[2,3-f]quinolin-10-yl)oxy)-3-fluorophenyl)-4-ethoxy-1-(4-fluorophenyl)-2-oxo-1,2-dihydropyridine-3-carboxamide], the concentration for half-maximal inhibition (IC50) in assay [1] is less than 50 nM; in assay [4], no more than 50 nM.

For the molecule `CCOc1ccn(-c2ccc(F)cc2)c(=O)c1C(=O)Nc1ccc(Oc2ccnc3cc(OCC4CC4)c4c(c23)OCCO4)c(F)c1` [Example 59, N-(4-((5-(cyclopropylmethoxy)-2,3-dihydro-[1,4]dioxino[2,3-f]quinolin-10-yl)oxy)-3-fluorophenyl)-4-ethoxy-1-(4-fluorophenyl)-2-oxo-1,2-dihydropyridine-3-carboxamide], the IC50 was less than 50 nM in assay [1] and no more than 50 nM in assay [4].

As for `CC(=O)N1CCN(CCCOc2cc3nccc(Oc4ccc(NC(=O)c5cn(C(C)C)c(=O)n(-c6ccc(F)cc6)c5=O)cc4F)c3c3c2OCCO3)CC1` [Example 75, N-(3-fluoro-4-((5-(3-(4-acetylpiperazin-1-yl)propoxy)-2,3-dihydro-[1,4]dioxino[2,3-f]quinolin-10-yl)oxy)phenyl)-3-(4-fluorophenyl)-1-isopropyl-2,4-dioxo-1,2,3,4-tetrahydropyrimidine-5-carboxamide], in assay [4], the IC50 was no more than 50 nM.

Consider `CC(C)n1cc(C(=O)Nc2ccc(Oc3ccnc4cc(OCCCN5CCS(=O)(=O)CC5)c5c(c34)OCCO5)c(F)c2)c(=O)n(-c2ccc(F)cc2)c1=O` [Example 76, N-(3-fluoro-4-((5-(3-(1,1-dioxidothiomorpholino)propoxy)-2,3-dihydro-[1,4]dioxino[2,3-f]quinolin-10-yl)oxy)phenyl)-3-(4-fluorophenyl)-1-isopropyl-2,4-dioxo-1,2,3,4-tetrahydropyrimidine-5-carboxamide], for which the half-inhibitory concentration (IC50) in assay [1] is less than 50 nM; in assay [4] it was no more than 50 nM.

Take `CC(C)n1cc(C(=O)Nc2ccc(Oc3ccnc4cc(OCCCN5CCCC5)c5c(c34)OCCO5)c(F)c2)c(=O)n(-c2ccc(F)cc2)c1=O` [Example 77, N-(3-fluoro-4-((5-(3-(pyrrolidin-1-yl)propoxy)-2,3-dihydro-[1,4]dioxino[2,3-f]quinolin-10-yl)oxy)phenyl)-3-(4-fluorophenyl)-1-isopropyl-2,4-dioxo-1,2,3,4-tetrahydropyrimidine-5-carboxamide]: the IC50 in assay [1] was less than 50 nM; in assay [4] it was no more than 50 nM.

With `CC(C)n1cc(C(=O)Nc2ccc(Oc3ccnc4cc(OCCO)c5c(c34)OCCO5)c(F)c2)c(=O)n(-c2ccc(F)cc2)c1=O` [Example 78, N-(3-fluoro-4-((5-(2-hydroxyethoxy)-2,3-dihydro-[1,4]dioxino[2,3-f]quinolin-10-yl)oxy)phenyl)-3-(4-fluorophenyl)-1-isopropyl-2,4-dioxo-1,2,3,4-tetrahydropyrimidine-5-carboxamide], the IC50 in assay [1] was less than 50 nM; in assay [4] it was no more than 50 nM.

As to `CC(C)n1cc(C(=O)Nc2ccc(Oc3ccnc4cc(OCCCO)c5c(c34)OCCO5)c(F)c2)c(=O)n(-c2ccc(F)cc2)c1=O` [Example 79, N-(3-fluoro-4-((5-(3-hydroxypropoxy)-2,3-dihydro-[1,4]dioxino[2,3-f]quinolin-10-yl)oxy)phenyl)-3-(4-fluorophenyl)-1-isopropyl-2,4-dioxo-1,2,3,4-tetrahydropyrimidine-5-carboxamide], the IC50 in assay [4] is no more than 50 nM.

As for `CC(C)Oc1cc2nccc(Oc3ccc(NC(=O)c4cn(C)c(=O)n(-c5ccc(F)cc5)c4=O)cc3F)c2c2c1OCCO2` [Example 88, N-(3-fluoro-4-((5-isopropoxy-2,3-dihydro-[1,4]dioxino[2,3-f]quinolin-10-yl)oxy)phenyl)-3-(4-fluorophenyl)-1-methyl-2,4-dioxo-1,2,3,4-tetrahydropyrimidine-5-carboxamide], the IC50 in assay [1] is less than 50 nM; in assay [4], no more than 50 nM.

Consider `Cn1cc(C(=O)Nc2ccc(Oc3ccnc4cc(OC5CCOC5)c5c(c34)OCCO5)c(F)c2)c(=O)n(-c2ccc(F)cc2)c1=O` (centres unmarked) [Example 90, N-(3-fluoro-4-((5-((tetrahydrofuran-3-yl)oxy)-2,3-dihydro-[1,4]dioxino[2,3-f]quinolin-10-yl)oxy)phenyl)-3-(4-fluorophenyl)-1-methyl-2,4-dioxo-1,2,3,4-tetrahydropyrimidine-5-carboxamide], for which the IC50 in assay [1] is less than 50 nM; in assay [4] it was no more than 50 nM.

For `Cn1cc(C(=O)Nc2ccc(Oc3ccnc4cc(OC5CCOCC5)c5c(c34)OCCO5)c(F)c2)c(=O)n(-c2ccc(F)cc2)c1=O` [Example 91, N-(3-fluoro-4-((5-((tetrahydropyran-4-yl)oxy)-2,3-dihydro-[1,4]dioxino[2,3-f]quinolin-10-yl)oxy)phenyl)-3-(4-fluorophenyl)-1-methyl-2,4-dioxo-1,2,3,4-tetrahydropyrimidine-5-carboxamide], the IC50 in assay [1] is less than 50 nM; in assay [4], no more than 50 nM.

Consider `CC(C)n1cc(C(=O)Nc2ccc(Oc3ccnc4cc(OCCCN5CCC(C)(C)CC5)c5c(c34)OCCO5)c(F)c2)c(=O)n(-c2ccc(F)cc2)c1=O` [Example 92, N-(3-fluoro-4-((5-(3-(4,4-dimethylpiperidin-1-yl)propoxy)-2,3-dihydro-[1,4]dioxino[2,3-f]quinolin-10-yl)oxy)phenyl)-3-(4-fluorophenyl)-1-isopropyl-2,4-dioxo-1,2,3,4-tetrahydropyrimidine-5-carboxamide], for which the values for the 50% inhibitory concentration (IC50) in assay [1] and in assay [4] were less than 50 nM and no more than 50 nM, respectively.

In the case of `CC(C)n1cc(C(=O)Nc2ccc(Oc3ccnc4cc(OCCCN5CCC(C)(N)CC5)c5c(c34)OCCO5)c(F)c2)c(=O)n(-c2ccc(F)cc2)c1=O` [Example 93, N-(3-fluoro-4-((5-(3-(4-amino-4-methylpiperidin-1-yl)propoxy)-2,3-dihydro-[1,4]dioxino[2,3-f]quinolin-10-yl)oxy)phenyl)-3-(4-fluorophenyl)-1-isopropyl-2,4-dioxo-1,2,3,4-tetrahydropyrimidine-5-carboxamide], the IC50 in assay [1] was less than 50 nM; in assay [4], no more than 50 nM.
